Laboratory results published in PMC12679610, “Impact of supersaturation on growth, critical radius, and size in neomycin nanoparticle crystallization using anti-solvent and CTAB” (RSC Advances, 2025).

Columns and labels:
[1] = Induction time measurement by in situ turbidimeter (antisolvent crystallization); format: physicochemical; conditions: CTAB 0.6 g kg^−1, 25 °C
Procedure: (§1) In this section, the method for the synthesis of neomycin nanoparticles is explained in detail. First, an exact amount of neomycin powder (purity ≥ 95%) was weighed using a digital analytical balance (accuracy: […]) based on the desired equilibrium concentration. The weighed neomycin was then added to 10 g of double-distilled water (25 °C). To ensure complete dissolution, the mixture was homogenized using a magnetic stirrer at controlled speeds of 300, 350, 400, and 450 rpm for 20 minutes. This range of stirring speeds was selected to investigate the effect of shear force on solution homogeneity. After confirming the homogeneity of the neomycin solution, a predetermined amount of CTAB surfactant with a concentration established from prior studies was added to the beaker. To achieve optimal mixing, the stirring system was activated at a constant speed between 300 and 450 rpm, and the mixing process continued until equilibrium was reached. The solution temperature was continuously monitored using a calibrated digital thermometer (±0.1 °C). A turbidity sensor was installed 2 cm from the crystallizer wall to measure changes in turbidity. Pure acetone (HPLC grade) was added dropwise (0.02 mL per drop) at 5-minute intervals. The first signs of physical change (e.g., localized cloudiness) were recorded as the initial saturation point. Acetone addition continued until stable turbidity (supersaturation) was achieved under isothermal conditions (25 °C). The induction time (the interval between initial saturation and supersaturation), as clearly depicted in Fig. 1, Section C (the induction time segment of steps 1 to 4), was measure using a synchronized turbidimeter and reaction timer data. To ensure reproducibility, the entire process was repeated in four independent trials under controlled conditions (constant temperature, humidity, and lighting).
Induction time represents a key parameter in crystallization processes, being predominantly influenced by three factors of supersaturation, temperature, and agitation rate.[29,32] This parameter characterizes the time interval between the onset of initial physical changes (saturated state) and the complete formation of a turbid phase (supersaturated state) within the system. Investigations indicate that both the optimal agitation speed and the application of dynamic shock have a significant influence on the system's supersaturation level.[29,33,35,36] A sudden increase in agitation rate initially induces localized supersaturation reduction through turbulence generation at the interface between unstable and metastable zones. […] CTAB modulates the process by reducing surface energy and stabilizing subcritical clusters, which shortens the nucleation time and broadened the metastable zone. Agitation dynamics initially cause a temporary decrease in localized supersaturation (dynamic shock), followed by a stabilization phase that enables controlled crystal growth.
Methodologically, induction time was measured using both visual observation and in situ turbidimetry.

[2] = Solubility of neomycin sulfate in water-acetone in the presence of CTAB; format: physicochemical
Procedure: as §1
This study investigated the solubility enhancement of neomycin in the presence of CTAB stabilizer through controlled dynamic shock application. In contrast to the reference study,[29] which utilized PVP at a mixing speed of 300 rpm, the present experimental design involved the addition of 0.3 g neomycin to a 10 g solvent–antisolvent mixture under 350 rpm agitation, incorporating intermittent dynamic shocks consisting of 3-second pulses at 380 rpm. […] This significant improvement stems from synergistic effects between: (1) CTAB's molecular interactions (ionic complexation with neomycin molecules, surface tension reduction, and stable colloidal environment through spherical micelle formation) and (2) dynamic shock-induced phenomena (enhanced antisolvent penetration and uniform stabilizer distribution).[73] […] The findings underscore the critical importance of concurrent optimization of physicochemical parameters in antisolvent crystallization processes for pharmaceutical nanoparticles.[74]
This study comprehensively investigated the influence of CTAB surfactant on neomycin crystallization. […] The supersaturation (S), as the primary driving force, directly affects the induction time, critical radius, growth rate, solubility, nanoparticle size, and nucleation mechanism.[33] CTAB operates through selective adsorption on crystalline surfaces, substantially influencing the nucleation pathway.[75,76] […] Quantitative data for these parameters are presented in Table 2, with the growth rate (intensity %) and nanoparticle size data being experimentally derived from DLS analysis.

`NC[C@@H]1O[C@H](O[C@H]2[C@@H](O)[C@H](O[C@@H]3[C@@H](O)[C@H](N)C[C@H](N)[C@H]3O[C@H]3O[C@H](CN)[C@@H](O)[C@H](O)[C@H]3N)O[C@@H]2CO)[C@H](N)[C@@H](O)[C@@H]1O.O=S(=O)(O)O` [neomycin sulfate] showed an Induction time ([1]; 300 rpm, initial neomycin 20 g kg^−1, S 1.18) of 112 s, an Induction time ([1]; 300 rpm, initial neomycin 20 g kg^−1, S 1.33) of 91 s and an Induction time ([1]; 300 rpm, initial neomycin 20 g kg^−1, S 1.45) of 86 s. The Induction time ([1]; 300 rpm, initial neomycin 20 g kg^−1, S 1.66) was 79 s, the Induction time ([1]; 350 rpm, initial neomycin 30 g kg^−1, S 1.2) was 101 s and the Induction time ([1]; 350 rpm, initial neomycin 30 g kg^−1, S 1.25) was 94 s. For the same molecule, the Induction time ([1]; 350 rpm, initial neomycin 30 g kg^−1, S 1.28) was 89 s, the Induction time ([1]; 350 rpm, initial neomycin 30 g kg^−1, S 1.43) was 81 s and the Induction time ([1]; 350 rpm, initial neomycin 30 g kg^−1, S 1.67) was 74 s. It also gave an Induction time ([1]; 400 rpm, initial neomycin 40 g kg^−1, S 1.29) of 99 s, an Induction time ([1]; 400 rpm, initial neomycin 40 g kg^−1, S 1.379) of 96 s and an Induction time ([1]; 400 rpm, initial neomycin 40 g kg^−1, S 1.48) of 83 s. The Induction time ([1]; 400 rpm, initial neomycin 40 g kg^−1, S 1.66) was 76 s, the Induction time ([1]; 400 rpm, initial neomycin 40 g kg^−1, S 1.9) was 72 s and the Induction time ([1]; 450 rpm, initial neomycin 50 g kg^−1, S 1.351) was 90 s. For the same molecule, the Induction time ([1]; 450 rpm, initial neomycin 50 g kg^−1, S 1.408) was 84 s, the Induction time ([1]; 450 rpm, initial neomycin 50 g kg^−1, S 1.47) was 77 s and the Induction time ([1]; 450 rpm, initial neomycin 50 g kg^−1, S 1.666) was 70 s. The Induction time ([1]; 450 rpm, initial neomycin 50 g kg^−1, S 1.785) was 64 s, the Solubility ([2]; 300 rpm, initial neomycin 20 g kg^−1, S 1.18, CTAB 0.6 g kg^−1, 25 °C) was 17 g/kg and the Solubility ([2]; 300 rpm, initial neomycin 20 g kg^−1, S 1.21, CTAB 0.6 g kg^−1, 25 °C) was 16 g/kg. The Solubility ([2]; 300 rpm, initial neomycin 20 g kg^−1, S 1.33, CTAB 0.6 g kg^−1, 25 °C) was 15 g/kg, the Solubility ([2]; 300 rpm, initial neomycin 20 g kg^−1, S 1.45, CTAB 0.6 g kg^−1, 25 °C) was 13.8 g/kg and the Solubility ([2]; 300 rpm, initial neomycin 20 g kg^−1, S 1.66, CTAB 0.6 g kg^−1, 25 °C) was 12 g/kg. For the same molecule, the Solubility ([2]; 350 rpm, initial neomycin 30 g kg^−1, S 1.2, CTAB 0.6 g kg^−1, 25 °C) was 25 g/kg, the Solubility ([2]; 350 rpm, initial neomycin 30 g kg^−1, S 1.25, CTAB 0.6 g kg^−1, 25 °C) was 24 g/kg and the Solubility ([2]; 350 rpm, initial neomycin 30 g kg^−1, S 1.28, CTAB 0.6 g kg^−1, 25 °C) was 23.5 g/kg. It also gave a Solubility ([2]; 350 rpm, initial neomycin 30 g kg^−1, S 1.43, CTAB 0.6 g kg^−1, 25 °C) of 21.1 g/kg, a Solubility ([2]; 400 rpm, initial neomycin 40 g kg^−1, S 1.29, CTAB 0.6 g kg^−1, 25 °C) of 31 g/kg and a Solubility ([2]; 400 rpm, initial neomycin 40 g kg^−1, S 1.379, CTAB 0.6 g kg^−1, 25 °C) of 29 g/kg. The Solubility ([2]; 400 rpm, initial neomycin 40 g kg^−1, S 1.48, CTAB 0.6 g kg^−1, 25 °C) was 27 g/kg, the Solubility ([2]; 400 rpm, initial neomycin 40 g kg^−1, S 1.66, CTAB 0.6 g kg^−1, 25 °C) was 24 g/kg and the Solubility ([2]; 400 rpm, initial neomycin 40 g kg^−1, S 1.9, CTAB 0.6 g kg^−1, 25 °C) was 21 g/kg. For the same molecule, the Solubility ([2]; 450 rpm, initial neomycin 50 g kg^−1, S 1.351, CTAB 0.6 g kg^−1, 25 °C) was 37 g/kg, the Solubility ([2]; 450 rpm, initial neomycin 50 g kg^−1, S 1.47, CTAB 0.6 g kg^−1, 25 °C) was 34 g/kg and the Solubility ([2]; 450 rpm, initial neomycin 50 g kg^−1, S 1.666, CTAB 0.6 g kg^−1, 25 °C) was 30 g/kg. It also gave a Solubility ([2]; 450 rpm, initial neomycin 50 g kg^−1, S 1.785, CTAB 0.6 g kg^−1, 25 °C) of 28 g/kg.
